Assays:
DNA-PK(h) = DNA-PK(h) (Homo sapiens, UniProt P78527); assay: Evaluation of inhibitory activity against DNA-PK (HTRF kinase assay, GST-cMyc-p53 substrate); assay type: biochemical; settings: for inhibition at 0.01 µM: compound concentration 0.01 μM, read-out: EXP_VALUE(% Inhibition) DNA-PK(h) 0.01 μM; for inhibition at 0.1 µM: compound concentration 0.1 μM, read-out: EXP_VALUE(% Inhibition) DNA-PK(h) 0.1 μM
Protocol: <Experimental Example 2> Evaluation of Inhibitory Activity Properties Against DNA-PK
The following experiments were performed to verify the inhibitory activity against DNA-PK with regard to each of the compounds of Examples 1 to 441 according to the present invention.
DNA-PK(h) was subjected to an isothermal treatment in an assay buffer comprising […] GST-cMyc-p53 and Mg/ATP (at a concentration as required). The reaction was initiated by the addition of a Mg/ATP mixture, and after incubation for 30 minutes at room temperature, a stop solution comprising EDTA was added to stop the reaction. A detection buffer comprising d2-labelled anti-GST monoclonal antibody and Europium-labelled anti-phospho Ser15 antibody for phosphorylated p53 was added. A plate was read in a time-resolved fluorescence mode and a homogeneous time-resolved fluorescence (HTRF) signal was determined according to HTRF=10000×(Em 665 nm/Em 620 nm).

[1] = target: PI3K-δ (PI3K(p1108/p857) (h)) (Homo sapiens, UniProt O00329); assay: Evaluation of inhibitory activity against PI3K-δ (HTRF kinase assay); assay type: biochemical; settings: for inhibition at 0.01 µM: compound concentration 0.01 μM, read-out: EXP_VALUE(% Inhibition) PI3K-δ 0.01 μM; for inhibition at 0.1 µM: compound concentration 0.1 μM, read-out: EXP_VALUE(% Inhibition) PI3K-δ 0.1 μM
Protocol: <Experimental Example 1> Evaluation of Inhibitory Activity Properties Against PI3K-δ
The following experiments were performed to verify the inhibitory activity against PI3K-δ with regard to each of the compounds of Examples 1 to 441 according to the present invention.
PI3K(p1108/p857) (h) was incubated in assay buffer comprising 10 μM phosphatidylinositol-4,5-bisphosphate and Mg/ATP (at a concentration as required). The reaction was initiated by the addition of a Mg/ATP mixture, and after incubation for 30 minutes at room temperature, a stop solution comprising EDTA and phosphatidylinositol-3,4,5-triphosphate was added to stop the reaction and carry out biotinylation.
A detection buffer comprising Eu (europium)-labelled anti-GST monoclonal antibody, GST-tagged GRP1 PH domain and streptavidin-allophycocyanin was added. A plate was read in a time-resolved fluorescence mode and a homogeneous time-resolved fluorescence (HTRF) signal was determined according to HTRF=10000×(Em 665 nm/Em 620 nm).

Sequence of PI3K-δ (PI3K(p1108/p857) (h)) (O00329 whole entry): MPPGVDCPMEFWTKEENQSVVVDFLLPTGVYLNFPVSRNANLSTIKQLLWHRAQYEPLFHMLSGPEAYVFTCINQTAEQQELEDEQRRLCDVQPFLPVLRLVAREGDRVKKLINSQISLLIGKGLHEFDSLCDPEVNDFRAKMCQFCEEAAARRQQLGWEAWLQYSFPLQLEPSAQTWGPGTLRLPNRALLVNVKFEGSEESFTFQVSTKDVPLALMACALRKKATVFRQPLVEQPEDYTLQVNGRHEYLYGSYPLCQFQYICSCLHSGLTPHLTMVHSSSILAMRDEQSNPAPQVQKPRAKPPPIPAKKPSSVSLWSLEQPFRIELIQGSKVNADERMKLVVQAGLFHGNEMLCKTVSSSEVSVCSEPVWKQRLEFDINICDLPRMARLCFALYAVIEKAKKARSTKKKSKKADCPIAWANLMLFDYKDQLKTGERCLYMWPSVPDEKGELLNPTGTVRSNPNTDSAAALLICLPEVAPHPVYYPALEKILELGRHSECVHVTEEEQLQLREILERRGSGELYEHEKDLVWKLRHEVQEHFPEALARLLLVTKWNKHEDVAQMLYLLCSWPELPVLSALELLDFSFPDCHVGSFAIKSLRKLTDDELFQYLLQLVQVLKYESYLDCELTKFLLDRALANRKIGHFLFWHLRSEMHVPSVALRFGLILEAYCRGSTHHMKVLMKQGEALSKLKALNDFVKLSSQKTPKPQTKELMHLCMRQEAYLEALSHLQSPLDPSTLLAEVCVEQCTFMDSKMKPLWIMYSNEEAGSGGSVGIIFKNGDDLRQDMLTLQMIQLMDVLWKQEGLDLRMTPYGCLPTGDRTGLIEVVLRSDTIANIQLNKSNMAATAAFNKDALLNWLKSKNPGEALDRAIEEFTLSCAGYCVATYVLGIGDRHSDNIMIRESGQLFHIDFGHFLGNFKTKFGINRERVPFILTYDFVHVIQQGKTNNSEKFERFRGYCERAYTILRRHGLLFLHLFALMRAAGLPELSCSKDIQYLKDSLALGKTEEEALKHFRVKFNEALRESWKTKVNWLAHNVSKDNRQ
Sequence of PI3K-δ (PI3K(p1108/p857) (h)) (P27986 whole entry partner): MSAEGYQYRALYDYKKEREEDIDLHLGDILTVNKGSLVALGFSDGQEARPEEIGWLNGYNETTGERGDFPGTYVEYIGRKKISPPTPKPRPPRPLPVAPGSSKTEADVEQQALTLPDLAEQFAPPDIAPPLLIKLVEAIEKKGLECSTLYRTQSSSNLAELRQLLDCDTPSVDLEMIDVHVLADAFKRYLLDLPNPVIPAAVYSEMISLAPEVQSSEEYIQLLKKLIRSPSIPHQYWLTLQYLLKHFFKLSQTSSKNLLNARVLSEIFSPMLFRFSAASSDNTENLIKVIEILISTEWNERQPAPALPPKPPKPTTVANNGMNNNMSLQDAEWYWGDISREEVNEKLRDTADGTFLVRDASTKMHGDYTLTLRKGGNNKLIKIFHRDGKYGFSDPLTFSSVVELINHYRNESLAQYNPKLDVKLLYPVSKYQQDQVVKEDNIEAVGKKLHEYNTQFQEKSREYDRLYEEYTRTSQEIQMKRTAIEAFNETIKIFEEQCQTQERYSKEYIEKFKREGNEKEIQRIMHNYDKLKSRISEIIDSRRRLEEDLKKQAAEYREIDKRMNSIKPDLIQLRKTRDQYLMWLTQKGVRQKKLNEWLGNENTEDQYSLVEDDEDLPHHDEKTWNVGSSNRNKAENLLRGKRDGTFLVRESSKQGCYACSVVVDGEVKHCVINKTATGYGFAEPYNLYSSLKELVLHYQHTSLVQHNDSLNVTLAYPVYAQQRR

Row | Compound | inhibition at 0.01 µM (DNA-PK(h)) | inhibition at 0.1 µM (DNA-PK(h)) | inhibition at 0.01 µM [1] | inhibition at 0.1 µM [1]
1 | C[C@H](Nc1ncnc2[nH]ccc(=O)c12)c1c(Cl)c2cccc(N3CC4CC=CCC4C3)c2c(=O)n1-c1ccccc1 (stereo partly drawn) [Example 8, 4-(((1S)-1-(4-chloro-1-oxo-2-phenyl-8-(3a, 4,7,7a-tetrahydro-1H-isoindol-2 (3H)-yl)-1,2-dihydroisoquinolin-3-yl)ethyl)amino)pyrido[2,3-d]pyrimidin-5(8H)-one] | 12% | 28% | 36% | 76%
2 | C[C@H](Nc1ncnc2[nH]ccc(=O)c12)c1c(Cl)c2cccc(N3CCN(c4ccncc4)CC3)c2c(=O)n1-c1ccccc1 [Example 9, (S)-4-((1-(4-chloro-1-oxo-2-phenyl-8-(4-(pyridin-4-yl)piperazin-1-yl)-1,2-dihydroisoquinolin-3-yl)ethyl)amino)pyrido[2,3-d]pyrimidin-5(8H)-one] | 60% | 92% | 50% | 61%
3 | C[C@H](Nc1ncnc2[nH]ccc(=O)c12)c1c(Cl)c2cccc(N3CCC(N4CCCCC4)CC3)c2c(=O)n1-c1ccccc1 [Example 10, (S)-4-((1-(8-([1,4′-bipiperidin]-1′-yl)-4-chloro-1-oxo-2-phenyl-1,2-dihydroisoquinolin-3-yl)ethyl)amino)pyrido[2,3-d]pyrimidin-5(8H)-one] | 15% | 73% | 40% | 70%
4 | C[C@H](Nc1ncnc2[nH]ccc(=O)c12)c1c(Cl)c2cccc(N3CCN(C4CCN(C)CC4)CC3)c2c(=O)n1-c1ccccc1 [Example 11, (S)-4-((1-(4-chloro-8-(4-(1-methylpiperidin-4-yl)piperazin-1-yl)-1-oxo-2-phenyl-1,2-dihydroisoquinolin-3-yl)ethyl)amino)pyrido[2,3-d]pyrimidin-5(8H)-one] | 18% | 53% | 21% | 61%
5 | C[C@H](Nc1ncnc2[nH]ccc(=O)c12)c1cc2cccc(-c3cccnc3)c2c(=O)n1-c1ccccc1 [Example 12, (S)-4-((1-(1-oxo-2-phenyl-8-(pyridin-3-yl)-1,2-dihydroisoquinolin-3-yl)ethyl)amino)pyrido[2,3-d]pyrimidin-5(8H)-one] | 6% | 21% | 102% | 114%
6 | Cc1ccc(-c2cccc3cc([C@H](C)Nc4ncnc5[nH]ccc(=O)c45)n(-c4ccccc4)c(=O)c23)cn1 [Example 13, (S)-4-((1-(8-(6-methylpyridin-3-yl)-1-oxo-2-phenyl-1,2-dihydroisoquinolin-3-yl)ethyl)amino)pyrido[2,3-d]pyrimidin-5(8H)-one] | 3% | 18% | 35% | 101%
7 | C[C@H](Nc1ncnc2[nH]ccc(=O)c12)c1cc2cccc(-c3ccc(F)cc3)c2c(=O)n1-c1ccccc1 [Example 14, (S)-4-((1-(8-(4-fluorophenyl)-1-oxo-2-phenyl-1,2-dihydroisoquinolin-3-yl)ethyl)amino)pyrido[2,3-d]pyrimidin-5(8H)-one] | 8% | 27% | 105% | 107%
8 | C[C@H](Nc1ncnc2[nH]ccc(=O)c12)c1cc2cccc(-c3cnn(C)c3)c2c(=O)n1-c1ccccc1 [Example 15, (S)-4-((1-(8-(1-methyl-1H-pyrazol-4-yl)-1-oxo-2-phenyl-1,2-dihydroisoquinolin-3-yl)ethyl)amino)pyrido[2,3-d]pyrimidin-5(8H)-one] | 24% | 37% | 109% | 108%
9 | C[C@H](Nc1ncnc2[nH]ccc(=O)c12)c1c(Br)c2cccc(-c3ccc(N(C)C)cc3)c2c(=O)n1-c1ccccc1 [Example 16, (S)-4-((1-(4-bromo-8-(4-(dimethylamino)phenyl)-1-oxo-2-phenyl-1,2-dihydroisoquinolin-3-yl)ethyl)amino)pyrido[2,3-d]pyrimidin-5(8H)-one] | 7% | 53% | 51% | 88%
10 | Cc1ccc(-c2cccc3c(Br)c([C@H](C)Nc4ncnc5[nH]ccc(=O)c45)n(-c4ccccc4)c(=O)c23)cn1 [Example 17, (S)-4-((1-(4-bromo-8-(6-methylpyridin-3-yl)-1-oxo-2-phenyl-1,2-dihydroisoquinolin-3-yl)ethyl)amino)pyrido[2,3-d]pyrimidin-5(8H)-one] | 70% | 94% | 99% | 97%
11 | C[C@H](Nc1ncnc2[nH]ccc(=O)c12)c1c(Br)c2cccc(-c3ccc(F)cc3)c2c(=O)n1-c1ccccc1 [Example 18, (S)-4-((1-(4-bromo-8-(4-fluorophenyl)-1-oxo-2-phenyl-1,2-dihydroisoquinolin-3-yl)ethyl)amino)pyrido[2,3-d]pyrimidin-5(8H)-one] | 75% | 98% | 80% | 96%
12 | C[C@H](Nc1ncnc2[nH]ccc(=O)c12)c1c(Br)c2cccc(-c3cnn(C)c3)c2c(=O)n1-c1ccccc1 [Example 19, (S)-4-((1-(4-bromo-8-(1-methyl-1H-pyrazol-4-yl)-1-oxo-2-phenyl-1,2-dihydroisoquinolin-3-yl)ethyl)amino)pyrido[2,3-d]pyrimidin-5(8H)-one] | 78% | 98% | 89% | 102%
13 | C[C@H](Nc1ncnc2[nH]ccc(=O)c12)c1cc2cccc(-c3ccc(N(C)C)cc3)c2c(=O)n1-c1ccccc1 [Example 20, (S)-4-((1-(8-(4-(dimethylamino)phenyl)-1-oxo-2-phenyl-1,2-dihydroisoquinolin-3-yl)ethyl)amino)pyrido[2,3-d]pyrimidin-5(8H)-one] | 3% | 55% | 67% | 95%
14 | C[C@H](Nc1ncnc2[nH]ccc(=O)c12)c1c(Cl)c2cccc(-c3ccc4[nH]c(=O)[nH]c4c3)c2c(=O)n1-c1ccccc1 [Example 21, (S)-4-((1-(4-chloro-1-oxo-8-(2-oxo-2,3-dihydro-1H-benzo[d]imidazol-5-yl)-2-phenyl-1,2-dihydroisoquinolin-3-yl)ethyl)amino)pyrido[2,3-d]pyrimidin-5(8H)-one] | 69% | 95% | 90% | 99%
15 | Cc1nc2ccc(-c3cccc4c(Cl)c([C@H](C)Nc5ncnc6[nH]ccc(=O)c56)n(-c5ccccc5)c(=O)c34)cc2o1 [Example 22, (S)-4-((1-(4-chloro-8-(2-methylbenzo[d]oxazol-6-yl)-1-oxo-2-phenyl-1,2-dihydroisoquinolin-3-yl)ethyl)amino)pyrido[2,3-d]pyrimidin-5(8H)-one] | 69% | 97% | 89% | 93%
16 | C[C@H](Nc1ncnc2[nH]ccc(=O)c12)c1cc2cccc(-c3ccc(C#N)cc3)c2c(=O)n1-c1ccccc1 [Example 23, (S)-4-(1-oxo-3-(1-((5-oxo-5,8-dihydropyrido[2,3-d]pyrimidin-4-yl)amino)ethyl)-2-phenyl-1,2-dihydroisoquinolin-8-yl)benzonitrile] | 38% | 85% | 82% | 96%
17 | C[C@H](Nc1ncnc2[nH]ccc(=O)c12)c1c(Cl)c2cccc(-c3ccc4cnoc4c3)c2c(=O)n1-c1ccccc1 [Example 24, (S)-4-((1-(8-(benzo[d]isoxazol-6-yl)-4-chloro-1-oxo-2-phenyl-1,2-dihydroisoquinolin-3-yl)ethyl)amino)pyrido[2,3-d]pyrimidin-5(8H)-one] | 85% |  | 61% | 
18 | C[C@H](Nc1ncnc2[nH]ccc(=O)c12)c1c(Cl)c2cccc(-c3cnc4[nH]ccc4c3)c2c(=O)n1-c1ccccc1 [Example 25, (S)-4-((1-(4-chloro-1-oxo-2-phenyl-8-(1H-pyrrolo[2,3-b]pyridin-5-yl)-1,2-dihydroisoquinolin-3-yl)ethyl)amino)pyrido[2,3-d]pyrimidin-5(8H)-one] | 7% |  | 6% | 
